Source: PubChem BioAssay AID1645868 (Buhrlage Lab, Dana-Farber Cancer Institute and Novartis …, 2021)
The source made the active and inactive calls.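 How the source made its calls: active means maximal percent inhibition of the deubiquitinase OTUD3 of at least 30% across the tested doses; inactive means the rest.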

Molecular target: OTU domain-containing protein 3 (Homo sapiens) (UniProt Q5T2D3)
Assay: Validation of screening hits, potency titration, in vitro enzymatic, OTU domain-containing protein 3 DUB inhibitors (AID 1645868)
Details: purified OTUD3, ubiquitin-rhodamine cleavage fluorescence, 2 h

Sequence of OTU domain-containing protein 3 (Homo sapiens) (Q5T2D3 whole entry, looked up, the tested form may be a part): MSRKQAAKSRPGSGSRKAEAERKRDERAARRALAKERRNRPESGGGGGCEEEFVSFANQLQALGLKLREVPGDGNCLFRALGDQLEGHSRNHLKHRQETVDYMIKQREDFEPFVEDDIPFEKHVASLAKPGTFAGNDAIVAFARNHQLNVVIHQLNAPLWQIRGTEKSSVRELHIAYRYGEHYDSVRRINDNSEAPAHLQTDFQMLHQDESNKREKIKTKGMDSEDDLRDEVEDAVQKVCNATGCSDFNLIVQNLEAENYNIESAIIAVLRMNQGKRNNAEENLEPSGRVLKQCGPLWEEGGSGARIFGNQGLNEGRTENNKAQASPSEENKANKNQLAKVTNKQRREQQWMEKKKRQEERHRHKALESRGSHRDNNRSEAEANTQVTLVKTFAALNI

IC50	Structure (SMILES)
31.9 µM	Cc1cc(O)c2c3c(c(O)c4c(c13)O[C@@H](C)C4(C)C)C(=O)C2=O
> 50 µM (inactive)	Cn1nc(-c2nc(-c3ccccc3)no2)c2c1CCN(C(=O)C1CCCC1)C2
> 50 µM (inactive)	O=S(c1ccc2ccccc2c1)c1cnns1 (stereo unspecified)
> 50 µM (inactive)	COc1ccccc1S(=O)(=O)N1CC[C@@H]2CN(C)[C@@H]2C1
12.7 µM	COc1cc(Cn2cnc3c([nH]c4ccc(Br)cc43)c2=O)cc(OC)c1
32.9 µM	O=C(Nc1ccc(F)cc1F)NC1CCN(c2ccccc2)C1=O (stereo unspecified)
> 50 µM (inactive)	O=C(NCCN1CCCC1)C1CCN(c2cnc(N3CCCCC3)nc2)CC1
12.1 µM	CCn1cc2c(n1)c(=O)n(Cc1ccccc1)c(=O)n2CC(=O)Nc1ccc(OC)cc1
> 50 µM (inactive)	O=c1[nH]cccc1NS(=O)(=O)c1ccc(F)cc1
> 50 µM (inactive)	O=c1ncn(Cc2ccc3c(c2)OCO3)cc1-c1ncc(C(F)(F)F)cc1Cl
> 50 µM (inactive)	Clc1cccc(N2CCN(c3ncnc4nc[nH]c34)CC2)c1
21.7 µM	CSc1cccc(C(=O)Nc2ccc(-c3nc4ccccc4[nH]3)cc2)c1
> 50 µM (inactive)	COc1ccc(-n2c(=O)c(CCC(=O)O)nc3ccccc32)cc1
32.9 µM	CCCC(=O)c1c[nH]c(C(=O)NCc2ccc(F)cc2)c1
22.4 µM	COc1cccc(N2CCN(C(=O)Nc3ccc4c(c3)NC(=O)CO4)CC2)c1
29 µM	Nc1nc(OCc2ccccc2)c2[nH]c(/C=C/c3cccs3)nc2n1
> 50 µM (inactive)	Cn1c(=O)c2c(nc3n(-c4ccccc4F)c(-c4ccccc4)cn23)n(C)c1=O
> 50 µM (inactive)	Cc1ccc2nnc(-c3ccccc3)c(C(=O)N3CCN(c4ccccn4)CC3)c2c1
> 50 µM (inactive)	CCOC(=O)c1cccc(NC(=O)Nc2cccn3nc(C)nc23)c1
> 50 µM (inactive)	CCN(c1ccccc1)S(=O)(=O)c1ccc(C(=O)Nc2nc3ccc(F)cc3s2)cc1
30.4 µM	Cc1cc(N2CCC(NC(=O)NCc3ccc(F)cc3)C2=O)ccc1F (stereo unspecified)
22.1 µM	CSc1ccccc1C(=O)Nc1sc2c(c1C(N)=O)CCC(C)C2 (stereo unspecified)
25.6 µM	COc1c(C)c(C(O)C(C)O)c2[nH]c3ccc(CC=C(C)C)cc3c2c1O (stereo unspecified)
> 50 µM (inactive)	COc1ccc(-n2nnc(C(=O)Nc3ccccc3)c2N)cc1

IC50	Structure (SMILES)
> 50 µM (inactive)	Cc1ccc(Cn2nnc(-c3ccccc3Cl)n2)cc1
> 50 µM (inactive)	COc1ccc2cc1Oc1cc(ccc1OC)C(O)C13SSC4(C(=O)N1C)C(O)C1=COC=CC(OC2=O)C1N4C3=O (stereo unspecified)
> 50 µM (inactive)	COC(=O)C1C(c2ccc(OC)cc2)C2(C(=O)c3ccccc3C2=O)C2C=Cc3ccccc3N12 (stereo unspecified)
21.8 µM	CC(=O)Nc1ccc(NC(=O)c2cc(-c3cc(C)cc(C)c3O)n[nH]2)cc1
> 50 µM (inactive)	N#Cc1ccccc1OCc1csc(-c2ccccc2)n1
> 50 µM (inactive)	CC(=O)c1ccc(N2C(=O)N(Cc3cccc([N+](=O)[O-])c3)c3ccccc3S2(=O)=O)cc1
30.8 µM	Cc1cc2c(cc1C)NC(CC(=O)Nc1ccc(O)cc1)C(=O)N2 (stereo unspecified)
> 50 µM (inactive)	Cc1nc(N2CCCC2)ncc1C(=O)Nc1ccc(F)c(F)c1
32.8 µM	O=C(Nc1ccc2c(c1)OCCO2)c1cccc2nc3ccccc3nc12
> 50 µM (inactive)	COCCCn1c(C(=O)NCCc2ccccc2)cc2c(=O)n3cccc(C)c3nc21
38.5 µM	O=C(Nc1nc2ccccc2s1)c1ccc2c(c1)C(=O)N(Cc1cccnc1)C2=O
29.3 µM	Cc1nc(N2CCCC2)ncc1-c1cc(=O)[nH]c(N2CCc3ccccc3C2)n1
19.5 µM	COc1ccc(S(=O)(=O)N2CCc3ccccc32)cc1C(=O)Nc1ccc2[nH]c(=O)[nH]c2c1
> 50 µM (inactive)	O=C(Cn1cnc(-c2noc(-c3ccncc3)n2)c1)N1CCN(c2ccccc2F)CC1
40.7 µM	CCc1ccc(-c2nc(SCC(=O)Nc3ccc4[nH]c(=O)[nH]c4c3)n[nH]2)cc1
> 50 µM (inactive)	Cc1noc(NS(=O)(=O)c2ccc(NC(=O)CSc3ccc4ccccc4c3)cc2)c1C
31 µM	Cc1cc(N2CCN(c3ncccn3)CC2)nc2ccc(NC(=O)c3ccncc3)cc12
> 50 µM (inactive)	CCc1ccc(C2c3c(oc4ccccc4c3=O)C(=O)N2c2nncs2)cc1 (stereo unspecified)
15.4 µM	CCOc1ccc(NC(=O)Cn2c(=O)n(CCC(=O)NCc3ccccc3OC)c(=O)c3ccccc32)cc1
> 5 µM (inactive)	CCOc1ccccc1NC(=O)COc1cc(OC)ccc1C(=O)c1ccccc1
> 50 µM (inactive)	Cn1c(CN2CCCCCC2)nc2cc(NC(=O)c3ccccc3)ccc21
> 50 µM (inactive)	Cc1oc(-c2ccc(C(=O)NCC3COCCO3)cc2)nc1CN1CCc2ccccc21 (stereo unspecified)
> 50 µM (inactive)	CC(C(=O)NCc1ccc(F)cc1)n1cccc1C(=O)c1ccccc1 (stereo unspecified)
10.2 µM	COc1cccc(Cn2nc3n(CC(C)C)c(=O)c4ccc(C(=O)NCC(C)C)cc4n3c2=O)c1

IC50	Structure (SMILES)
39.9 µM	Cc1ccc2nc(CNC(=O)c3ccccc3-c3nc(-c4ccc(F)cc4)no3)[nH]c2c1
> 50 µM (inactive)	CCNc1oc(-c2ccc(S(=O)(=O)N3CCCCC3)cc2)nc1C#N
> 50 µM (inactive)	COc1cccc(NC(=O)Cn2c(COc3ccccc3)nc3ccccc32)c1
> 50 µM (inactive)	Cc1ccc(-c2nc(N3CCCC(O)C3)ncc2-c2cnccn2)s1 (stereo unspecified)
> 50 µM (inactive)	O=C(COC(=O)C1CCCN1C(=O)C12CC3CC(CC(C3)C1)C2)c1ccc(Cl)cc1 (stereo unspecified)
> 50 µM (inactive)	COc1ccc(NC(=O)c2ccnc(Nc3ccc(OC)cc3)c2)cc1
> 50 µM (inactive)	O=C(NCc1ccccc1Cl)c1ccc2cn[nH]c2c1
> 50 µM (inactive)	Cc1cccc(NC(=O)c2noc3c2CCc2sccc2-3)n1
> 50 µM (inactive)	CCOc1ccc2c(c1)c(=O)c(C(=O)c1ccc(C)cc1)cn2CC(=O)Nc1ccc(OC)cc1
37.1 µM	Cc1cc(Nc2ccc(C(=O)NCc3ccco3)cc2)n2nc(-c3cccnc3)nc2n1
31.6 µM	Cc1ccccc1-c1nnc(-c2ccc(C(=O)NCc3ccccc3F)cc2)o1
30.5 µM	Cc1ccc(NC(=O)/C=C/c2cccc(C(F)(F)F)c2)c(O)c1
5.57 µM	O=C(NCc1ccccc1Cl)c1ccc(-c2nnc(-c3ccccc3)o2)cc1
> 50 µM (inactive)	CCn1c(CNc2ccc(Cl)cc2)nnc1SCC(=O)Nc1ccccc1
> 50 µM (inactive)	Cc1ccc(C)c(S(=O)(=O)N2CCC3(CC2)NC(=O)c2ccccc2N3)c1
> 50 µM (inactive)	CN1CCN(c2ccc3nc(-c4ccccc4)c(-c4ccccc4)nc3c2)CC1
> 50 µM (inactive)	CC(C)CCn1c(=O)c2ccccc2n2c(CCC(=O)NC3CCCCCC3)nnc12
> 50 µM (inactive)	O=S1(=O)CCN(Cc2cccnc2)c2c(F)nc(N3CCOCC3)c(F)c21
> 50 µM (inactive)	CCOC(=O)c1c(C)oc2nc(CSc3ccccc3)[nH]c(=O)c12
> 50 µM (inactive)	CCn1c(=N)n(CCOc2ccc(F)cc2)c2ccccc21
> 50 µM (inactive)	O=C(Cc1c[nH]c2ccccc12)Nc1nc2ccccc2s1
> 50 µM (inactive)	O=C1NCCCC1Cc1ccc(-c2cccc(C(=O)N3CCc4ccccc4C3)c2)cc1 (stereo unspecified)
> 50 µM (inactive)	O=C1COc2ccc(NC(=O)c3cnn(Cc4ccccc4)c3)cc2N1
> 50 µM (inactive)	O=C(NCc1ccc(-c2nc3cnccc3o2)cc1)c1cc2ccccc2o1

IC50	Structure (SMILES)
> 50 µM (inactive)	CCCn1c(=O)n(CC(=O)c2ccccc2F)c2c(C(N)=O)nc(-c3ccco3)nc21
> 50 µM (inactive)	N#C/C(=C/c1sc(N2CCOCC2)nc1-c1ccccc1)c1ccccn1
> 50 µM (inactive)	CC(C)(C)c1cc(C[C@@H]2C[C@H](NC(=O)N3CCOCC3)C2(C)C)no1
> 50 µM (inactive)	CC(=O)c1ccc(NC(=O)CSc2nc(-c3ccccc3)nc3c2COC(C)(C)C3)cc1
> 50 µM (inactive)	O=C(CSc1nnc2n1CCCCC2)Nc1ccc2[nH]c(=O)[nH]c2c1
> 50 µM (inactive)	Cc1cc(C(=O)N2CC(C(=O)Nc3cc(C(F)(F)F)ccc3Cl)C2)no1
> 50 µM (inactive)	COc1ccccc1-c1nc(-c2cn(-c3ccc(C)cc3)nn2)no1
> 50 µM (inactive)	O=C(OCCCN1C(=O)c2cccc3c(N4CCCCC4)ccc(c23)C1=O)c1ccccn1
> 50 µM (inactive)	CCC(C(=O)NCc1ccncc1)N(c1cccc(Cl)c1)S(C)(=O)=O (stereo unspecified)
> 50 µM (inactive)	COc1cccc(N2CCN(C(=O)c3cc(NC(C)=O)cc4nc(C)ccc34)CC2)c1
> 50 µM (inactive)	O=C(Cc1ccccc1F)Nc1nc(-c2ccco2)c(-c2ccco2)s1
33.8 µM	COc1ccc(OC)c(NC(=O)CS(=O)(=O)c2cn(CC(=O)N3CCC(C)CC3)c3ccccc23)c1
> 50 µM (inactive)	CC(C)C1Cc2c(sc3nc(SCC(=O)Nc4cccc5ccccc45)nc(N)c23)CO1 (stereo unspecified)
28.5 µM	CC1CS(=O)(=O)N(c2ccc(C(=O)Nc3ccc4c(c3)OCCO4)cc2)C1=O (stereo unspecified)
19.1 µM	COc1ccc(NC(=O)c2[nH]nc3c2COc2ccccc2-3)c(OC)c1
> 50 µM (inactive)	Cc1ccc(Cc2nc(-c3ccc(=O)[nH]c3)no2)cc1
25.7 µM	COc1ccc(NC(=O)Cn2c(CS(=O)(=O)c3ccc(C)cc3)nc3ccccc32)cc1
3.73 µM	CC1=C(Cn2c3cccc(=O)c-3nc3ccccc32)CCC(C)(C)C1
> 50 µM (inactive)	O=C(COC(=O)c1ccc2ncsc2c1)Nc1ccccc1F
> 50 µM (inactive)	CCOC(=O)c1cnn(-c2ccc(C(=O)Nc3ccc(C)c(Cl)c3)cc2)c1N
> 50 µM (inactive)	COc1ccc(Cl)cc1N1C(=O)[C@H]2[C@@H](C1=O)[C@]1(C(=O)Nc3c(C)cc(C)cc31)N1CCC[C@@H]21
> 50 µM (inactive)	O=C(CC1C(=O)N(Cc2cccnc2)c2nc3ccccc3n21)Nc1cccc2ccccc12 (stereo unspecified)
> 50 µM (inactive)	Cc1ccc(C)c(-n2c(N)c(C(=O)NCCc3ccccc3)c3nc4ccccc4nc32)c1

Structure (SMILES)	IC50
CCCCCC(O)c1c(O)cc2c(c1O)C(=O)c1c(O)cc(O)cc1C2=O (stereo unspecified)	> 50 µM (inactive)
